Measurements from article PMC7450938, “Prenatal to early postnatal neurotrophic treatment prevents Alzheimer-like behavior and pathology in mice” (Alzheimer's Research & Therapy, 2020).

Experiments:
[1] = system: tau; experiment: Western blots of total and hyperphosphorylated tau in hippocampus; format: in vivo, mouse
Description: (§1) We treated 2- to 3-month-old pregnant 3xTg-AD and WT mothers with compound P021 in mouse chow, or with vehicle feed as control at E8 until their offspring/pups reached PND21, at which point the offspring were separated and put on standard mouse chow (Fig. 1). Treatment was administered as 60 nmol peptide/g formulated diet (Research Diets; New Brunswick, NJ, USA). The vehicle-treated control animals received the same diet but without the peptide. On average, each mouse consumed ~ 2.7 g diet/day.
The animals were anesthetized with an overdose of sodium pentobarbital (125 mg/kg) and transcardially perfused with 0.1 M phosphate-buffered saline (PBS). After perfusion, the brains were removed from the skull immediately. The left hemisphere was dissected into hippocampus, cerebral cortex, cerebellum, and brain stem; immediately frozen on dry ice; and then stored at − 80 °C for biochemical analysis.
(§2) The tissue from the left cerebral hemisphere from each mouse stored at− 80 °C was homogenized in a Teflon-glass homogenizer to generate 10% (w/v) homogenate. The pre-chilled homogenization buffer contained 50 mM Tris–HCl (pH 7.4), 8.5% sucrose, 2 mM EDTA, 2 mM EGTA, 10 mM β-mercaptoethanol plus the following protease and phosphatase inhibitors: 0.5 mM AEBSF, 10 μg/mL aprotinin, 10 μg/mL leupeptin, 4 μg/mL pepstatin, 5 mM benzamidine, 20 mM β-glycerophosphate, 50 mM sodium fluoride, 1 mM sodium orthovanadate, and 100 nM okadaic acid. Each homogenate was boiled in 2× Laemmli sample buffer for 5 min, and protein concentration was measured by PierceTM 660-nm protein assay (Thermo Scientific; Rockford, IL, USA).
(§3) The samples were subjected to 10% SDS-PAGE and electro-transferred onto Immobilon-P membranes (EMD Millipore; Billerica, MA, USA). The blots were then probed with primary antibodies (Table 1) and developed with the corresponding HRP-conjugated secondary antibody and enhanced chemiluminescence (Pierce Biotechnology, Rockford, IL, USA). Densitometric quantification of protein bands in Western blots was analyzed using Multi Gauge version 3.0 software (FUJIFILM North America; Valhalla, NY, USA).

[2] = system: P-tau (Ser396/404); experiment: PHF-1 immunofluorescence, hippocampal CA1; format: in vivo, mouse; conditions: hippocampal CA1 region, 22-month-old 3xTg-AD mice; P021 diet E8-PND21; vs 3xTg-Vh
Description: as §1
(§4) The complete right hemisphere was immersion-fixed in 4% paraformaldehyde in 0.1 M PBS for 24–48 h, followed by cryoprotection in a 30% sucrose solution at 4 °C overnight. Later, the 40-μm-thick sagittal sections were cut on a freezing microtome. […]
(§5) Immunofluorescence staining was performed on free-floating sections, and every 12th brain section was chosen for densitometry and quantification. For immunohistochemical quantification, six brain sections of four animals per group were analyzed. All stainings for fluorescence-intensity quantification were carried out under identical conditions, including all tissue samples for a particular staining processed at the same time, and experimental and control sections photographed under identical settings. […]

[3] = system: Aβ plaques; experiment: Aβ immunofluorescence, amyloid plaques in brain sections; format: in vivo, mouse; conditions: 22-month-old 3xTg-AD mice, P021 diet E8-PND21
Description: as §1, §4, §5

[4] = system: Aβ plaques; experiment: Thioflavin-S-positive plaque load; format: in vivo; conditions: subiculum, 22-month-old 3xTg-AD mice; 6 sections per mouse, n = 4 mice; P021 diet E8-PND21
Description: as §1
Thioflavin-S–positive (TS+) plaque load was quantified on every 12th section (roughly six sections per set) of four animals from 22-month-old groups. A modified thioflavin-S staining protocol was used as follows. Free-floating brain sections were washed in large volumes of distilled water, incubated in 0.25% KMnO4 for 4–5 min, washed with water, and treated with a solution of 1% K2S2O5 and 1% oxalic acid for 40–60 s until the brown color was completely washed out. Sections were then incubated with 0.05% thioflavin-S in water in the dark for 8 min, followed by differentiation in 80% ethanol twice for 1 min each. […] The images were taken by using a Nikon 90i fluorescent microscope, threshold using ImageJ (v.1.46r), and TS+ plaque load was quantified in the hippocampus CA1 and subiculum areas.

[5] = system: NR1, NR2A, NR2B, GluR1, GluR2&3, p-CREB; experiment: Western blots of glutamate receptors and CREB in hippocampus; format: in vivo, mouse
Description: as §1, §2, §3

[6] = system: PSD95, synapsin, synaptophysin, MAP2; experiment: Western blots of dendritic and synaptic markers in hippocampus; format: in vivo, mouse; conditions: 3xTg-AD mice
Description: as §1, §2, §3

[7] = system: Iba-1, GFAP; experiment: Western blots of Iba-1 and GFAP in hippocampus; format: in vivo, mouse; conditions: for increase of GFAP: 3xTg-AD mice, P021 diet E8-PND21, n = 3-4/group; for expression of Iba-1: among groups
Description: as §1, §2, §3

[8] = no method and no reference printed for this sentence, next sentence ref 22, cited from earlier work
Description: P021 is quite stable in artificial gastric juice (~ 90% during 30 min) and in artificial intestinal juice (> 95% during 120 min).

[9] = commercial service (APREDICA, Watertown, MA); cited from earlier work
[10] = system: 3xTg-AD mice; conditions: chronic treatment, moderate and severe stages of the pathology; cited from earlier work
Description: (§6) Chronic treatment with P021 ...

[11] = system: aged Fisher rats; conditions: oral administration; cited from earlier work
Description: as §6

[12] = 4-month-old 3xTg-AD mice, P021 diet E8-PND21, vs 3xTg-Vh, n = 4
[13] = 22-month-old 3xTg-AD mice, P021 diet E8-PND21
[14] = 22-month-old 3xTg-AD mice, P021 diet E8-PND21, vs 3xTg-Vh, n = 4
[15] = 4 months, 3xTg-AD mice, P021 diet E8-PND21, n = 3-4/group
[16] = 22 months, 3xTg-AD mice, P021 diet E8-PND21, n = 3-4/group
[17] = 4 months, P021 diet E8-PND21, n = 3-4/group

Ac-DGGL^AG-NH2 [P021, 4-mer CNTF small molecule peptide mimetic to which adamantylated glycine was added at the C-terminal]
human-specific tau (antibody 43D) [1, 12]: decreased
tau hyperphosphorylation at Ser202/Thr205 (antibody AT8) [1, 12]: decrease
total tau (antibody R134d) [1, 12]: decreased
human tau (antibody 43D) [1, 13]: did not change significantly
hyperphosphorylated tau (antibody pT212) [1, 13]: did not change significantly
tau hyperphosphorylation at Ser202/Thr205 (antibody AT8) [1, 14]: decreased
tau hyperphosphorylation at Ser-396/404 (antibody PHF-1) [1, 14]: decreased
total tau (antibody R134d) [1, 14]: only an insignificant decrease
PHF-1 immunofluorescence, percent area [2]: attenuated
plaque-occupied area (Aβ immunofluorescence) ([3]; one half of the brain, 6 sections per mouse, n = 4 mice): significantly decreased
amyloid plaques detected by Aβ antibody ([3]; subiculum, piriform cortex, forebrain and hippocampus, vs 3xTg-Vh): markedly reduced
plaque burden by thioflavin-S staining [4]: a significant decrease
level of GluR1 [5, 15]: increased
level of NR1 [5, 15]: increased
level of NR2A [5, 15]: increased
level of phosphorylated CREB (p-CREB) [5, 15]: increased
level of GluR2&3 ([5]; 4 months, among groups): no significant changes
level of NR2B ([5]; 4 months, among groups): no significant changes
level of NR1 [5, 16]: increased
level of NR2A [5, 16]: increased
level of p-CREB [5, 16]: increased
level of GluR1 ([5]; 22 months, among groups): no significant changes
level of GluR2 and 3 ([5]; 22 months, among groups): no significant changes
level of NR2B ([5]; 22 months, among groups): no significant changes
MAP2 deficit [6, 17]: only the PSD 95 deficit was rescued
PSD95 deficit [6, 17]: rescued
synapsin deficit [6, 17]: only the PSD 95 deficit was rescued
synaptophysin deficit [6, 17]: only the PSD 95 deficit was rescued
levels of PSD95, synapsin, synaptophysin, and MAP2 ([6]; 22 months, P021 diet E8-PND21, not significant): a trend for an increase
increase of GFAP ([7]; 4 months): rescued
expression of Iba-1 ([7]; 4 months): no significant changes
increase of GFAP ([7]; 22 months): rescued
expression of Iba-1 ([7]; 22 months): no significant changes
stability in artificial gastric juice ([8]; during 30 min): ~ 90%
stability in artificial intestinal juice ([8]; during 120 min): > 95%
crossing of the blood-brain barrier [9]: enough P021 crossed the BBB to exert its effect in the brain
tau pathology [10]: significantly reduced
cognitive aging [11]: could rescue cognitive aging
